# Data published in BindingDB's records for doi:10.1002/syn.890150302 (Vanderbilt University, 1993).
# Where “and” joins values, the source holds several entries; their conditions need not be identical. Equal values may be shown once.
# Target: D(2) dopamine receptor (Rattus norvegicus, UniProt P61169)
# Sequence (P61169 whole entry): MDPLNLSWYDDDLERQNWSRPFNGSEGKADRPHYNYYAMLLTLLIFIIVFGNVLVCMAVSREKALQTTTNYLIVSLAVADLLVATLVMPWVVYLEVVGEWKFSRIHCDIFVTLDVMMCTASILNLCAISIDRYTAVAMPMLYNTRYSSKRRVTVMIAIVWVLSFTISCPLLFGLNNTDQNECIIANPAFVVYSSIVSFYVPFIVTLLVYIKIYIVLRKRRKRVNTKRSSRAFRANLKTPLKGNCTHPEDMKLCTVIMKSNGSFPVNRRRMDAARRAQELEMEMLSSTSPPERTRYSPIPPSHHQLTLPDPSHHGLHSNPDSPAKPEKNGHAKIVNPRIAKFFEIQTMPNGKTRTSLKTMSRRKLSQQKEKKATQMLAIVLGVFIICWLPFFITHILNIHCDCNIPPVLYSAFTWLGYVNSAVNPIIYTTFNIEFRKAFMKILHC
smiles,measurement,value
c1ccc2c(c1)OCC(C1=NCCN1)O2 (centres undefined),Ki,> 10 µM
CCN1CCC[C@H]1CNC(=O)c1cc(I)cc(OC)c1OC,Ki,0.0001 µM and 0.00012 µM
NCc1cc(=O)[nH]o1,Ki,> 10 µM
COc1cc2nc(N3CCN(C(=O)c4ccco4)CC3)nc(N)c2cc1OC [[3H]-Minipress],Ki,> 10 µM
"CN1[C@@H]2CC[C@H]1C[C@@H](OC(=O)c1cc(Cl)cc(Cl)c1)C2 [TROPANYL 3,5-DICHLOROBENZOATE]",Ki,> 10 µM
"C=CCN1CC[C@]2(C)c3cc(O)ccc3C[C@@H]1[C@@H]2C [SKF 10,047 (-)]",Ki,> 10 µM
"CN1CCc2cc3c(cc2[C@H]1[C@@H]1OC(=O)c2c1ccc1c2OCO1)OCO3 [(R)-6-((S)-6-methyl-5,6,7,8-tetrahydro-[1,3]dioxolo[4,5-g]isoquinolin-5-yl)isobenzofuro[5,4-d][1,3]dioxol-8(6H)-one]",Ki,> 10 µM
"O=C(c1ccc(F)cc1)C1CCN(CCn2c(=O)[nH]c3ccccc3c2=O)CC1 [3-(2-{4-[(4-fluorophenyl)carbonyl]piperidin-1-yl}ethyl)-1,2,3,4-tetrahydroquinazoline-2,4-dione]",Ki,0.555 µM and 0.519 µM
"C=CCc1ccccc1OC[C@@H](O)CNC(C)C [ALPRENOLOL,(-)]",Ki,> 10 µM and 6.86 µM
